Reference: paper PMC9101869, “5,2′-Dibromo-2,4′,5′-trihydroxydiphenylmethanone Inhibits LPS-Induced Vascular Inflammation by Targeting the Cav1 Protein” (Molecules, 2022)

Biological target: T1, Cav1 (Homo sapiens, UniProt Q03135)
T1 construct: commercial human recombinant Cav1 (Cloud-Clone Corp.); biotinylated for BLI
T1 sequence (Q03135 2-178): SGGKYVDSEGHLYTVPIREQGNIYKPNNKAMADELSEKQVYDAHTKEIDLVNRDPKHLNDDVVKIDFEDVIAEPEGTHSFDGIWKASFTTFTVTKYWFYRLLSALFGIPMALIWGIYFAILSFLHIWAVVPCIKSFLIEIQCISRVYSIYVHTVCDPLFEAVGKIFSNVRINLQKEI
Experiment: intrinsic fluorescence quenching, double logarithmic fit
Type: binding
Conditions: 298 K; Cav1 5.0 × 10^−9 mol/L; excitation 280 nm; n fitted as free exponent; read-out: Kb(L.mol^-1) (converted)
Excerpt: intrinsic fluorescence quenching, double logarithmic fit on Cav1

Kd: 0.917 nM
Structure (SMILES): O=C(c1cc(Br)ccc1O)c1cc(O)c(O)cc1Br [TDD, 5,2′-dibromo-2,4′,5′-trihydroxydiphenylmethanone]
